These results are taken from patent US12390467B2, “Necroptosis inducers or autophagy inhibitors or a combination thereof” (The University of Toledo, priority 2018, dated 2025).

Type in all cases: cell-based
One data set deals with MDA-MB468 cells. The experiment in a line: Nuclear condensation and morphology, MDA-MB468. The protocol:
To detect DNA fragmentation following apoptotic cell death, the Hoechst 33258 assay was performed. Briefly, TNBC cells were seeded in a 6-well plate at a density of 10,000 cells/well over 18-mm cover slips and incubated for 24 h. Following incubation, TPH104 (1, 2, or 5 μM), or vehicle were added for an additional 12 h. Subsequently, Hoechst 33258 (Sigma Aldrich, USA) was added to the cells at a concentration of 0.5 mg/mL and incubated for 30 minutes at 37° C. The cells were then washed 3× with phosphate buffered saline (PBS). Subsequently, the cover slips were mounted on a microscope glass/slide and allowed to dry for at least 2 h. Stained cells from each cover slip were captured from randomly selected fields under a fluorescent microscope (EVOS-FLC cell imaging system, Thermofisher scientific) to qualitatively determine the proportion of viable and apoptotic cells based on their relative fluorescence and nuclear fragmentation as previously described.

A further data set has as its system BT-20 cells. Briefly: Acridine orange assay. Particulars: TPH104, 12 h, vs vehicle. The method, then:
The cell-permeant, nucleic acid binding dye, acridine orange (AO) was used to assess the effect of TPH104 on the activation of lysosomes. A 10 μg/ml stock solution was prepared using PBS. The TNBC cells were seeded in a 6-well plate as described in the cell cycle assay. After overnight incubation, cells were incubated with TPH104 (1, 2, 5 μM), vehicle or 20 uM of chloroquine (CQ, […]) for 12 h. The media was removed via suction and 1 ml of AO, diluted in 1:1000 in PBS, was added to each well and the plate was incubated for an additional 30 minutes. Cells were washed three times in PBS to remove excess dye. The cells from each well were captured from randomly selected fields using a fluorescent microscope (EVOS-FLC cell imaging system, Thermofisher scientific) at 40× to determine the AO fluorescence intensity which is positively correlated to lysosomal activation.

Data set [1] concerns TRAIL, DR5, TRADD, RIP3, TNF-α, TNFR1, FADD, Fas in BT-20 TNBC cells. The experiment in a line: Western blot, TRAIL and TNF pathway proteins. The method, then: The TNBC cells were seeded in a culture flask and incubated for 24 h. The cells were then incubated with different concentrations of the lead compounds and re-incubated for an additional 12 or 24 h. […] The bicinchoninic acid (BCA) was used to determine protein concentration in the cell extracts (G-BIOSCIENCES, St. Louis, MO, USA). […] The membrane was blocked using 5% milk in Tris-buffered Tween 20 saline for 30 minutes. The membrane was then incubated overnight with primary antibodies against Bak, Bax, Bcl-2, caspase9, caspase 3, caspase 7, PARP, cytochrome c, N-cadherin, E-cadherin, c-Myc, dishevelled segment polarity protein 3 (DVL3), dishevelled segment polarity protein 2 (DVL2), Vimentin, mitogen-activated protein kinase kinase (MAPKK also known as MEK1/2), β-catenin, low-density lipoprotein receptor-related protein 6 (LRP6), receptor-interacting protein kinase (RIP), phosphorylated RIP (p-RIP), mixed lineage kinase domain like pseudokinase(MLKL), Caspase 8, light chain 3 (LC3), lysosomal-associated membrane protein 1 (LAMP1), unc-51 like autophagy activating kinase 1 (ULK1), ras associated protein 7 (Rab7), ras associated protein 5 (Rab5), Beclin 1, mechanistic target of rapamycin (mTOR), tumor necrosis factor alpha (TNF-α), tumor necrosis factor receptor 1 (TNFR1), tumor necrosis factor receptor 2 (TNFR2), Fas-associated protein with death domain (FADD), Fas ligand (Fas), TNF-related apoptosis-inducing ligand (TRAIL), death receptor 5 (DR5), Tumor necrosis factor receptor type 1-associated DEATH domain (TRADD), receptor-interacting protein kinase 3 (RIP3), β-actin or GAPDH in 1:1000 dilution in 5% milk or 5% BSA at 4° C. […] A ChemiDoc™ MP System imaging system from Bio-Rad (Hercules, CA, USA) was used for blots reading. Blots were used to obtain the protein bands, followed by quantification of the bands using image J software (NIH, Bethesda, MD, USA). All of the data were expressed as the ratio of β-actin or GAPDH.
(In general: Immunoblotting shows a protein as a band on a membrane.)

The target in data set [2] is T1, ABCG2 transporter (S1M180 cells) (Homo sapiens, UniProt Q9UNQ0, R482G).
T1 construct: intracellular accumulation of rhodamine 123 in ABCG2 overexpressing S1M180 cells; endogenous in cells; host or cells: S1M180 colon cancer cells
Briefly: Intracellular accumulation of rhodamine 123. The conditions noted are these: 0.05-1 μM. The method, then: FIG. 26: TPH104 reverses multidrug resistance by blocking the function of ABCG2 transporter. The effect of TPH104 and nilotinib on the intracellular accumulation of rhodamine 123 in ABCG2 overexpressing S1M180 cells. The top image is a graph showing the concentration-dependent increase in the accumulation of rhodamine 123 in S1M180 cells incubated with TPH104. Red filled=control; sky blue filled=0.05 μM; brown filled=0.1 μM; dark blue filled=0.3 μM; lime green filled=1 μM of TPH104, respectively, and olive green=nilotinib, 5 μM. The bottom image is a bar graph representing the relative rhodamine 123 accumulation levels. The data shown as means±SEM of three independent experiments. *p<0.05; ***p<0.001 compared to the control.

The subject of data set [3] is MDA-MB231, MDA-MB468, and BT-20. The experiment in a line: Cell colony formation assay. Particulars: vs vehicle. The method, then: This assay was used to measure the size and rate of colony formation for TNBC cells, with or without TPH104, as previously reported. Briefly, in a 6-well cell culture plate, cells were seeded at a density of 250,000 cells/well and allowed to grow/attach overnight. The next day, the cells were incubated with different concentration of TPH104 (0.1, 1, or 10 μM) or vehicle and incubated for 12 h at 37° C. Following incubation, the cells were harvested, counted, and reseeded at a density of 500-800 cells/well (1 ml in each well), in a new 6-well plate, with complete medium for 10 days. The medium was changed every 2 days in order to prevent cell starvation. On the 10th day, the colonies were fixed with absolute methanol at room temperature for 30 minutes. Subsequently, cells were stained with 0.1% crystal violet dye (Sigma, USA) for an additional 30 minutes. Finally, the fixed and stained colonies were viewed, pictured (at 4, 10, and 20×) and counted using an EVOS-FLC microscope (Thermo Fisher Scientific, Wayne, MI, USA). The following equation was used to calculate the colony formation rate: Colony formation rate=number of colonies formed/number of seeded cells (500)×100% Trans-Well Migration Assay

T1 sequence (Q9UNQ0 whole entry R482G, one chain of several): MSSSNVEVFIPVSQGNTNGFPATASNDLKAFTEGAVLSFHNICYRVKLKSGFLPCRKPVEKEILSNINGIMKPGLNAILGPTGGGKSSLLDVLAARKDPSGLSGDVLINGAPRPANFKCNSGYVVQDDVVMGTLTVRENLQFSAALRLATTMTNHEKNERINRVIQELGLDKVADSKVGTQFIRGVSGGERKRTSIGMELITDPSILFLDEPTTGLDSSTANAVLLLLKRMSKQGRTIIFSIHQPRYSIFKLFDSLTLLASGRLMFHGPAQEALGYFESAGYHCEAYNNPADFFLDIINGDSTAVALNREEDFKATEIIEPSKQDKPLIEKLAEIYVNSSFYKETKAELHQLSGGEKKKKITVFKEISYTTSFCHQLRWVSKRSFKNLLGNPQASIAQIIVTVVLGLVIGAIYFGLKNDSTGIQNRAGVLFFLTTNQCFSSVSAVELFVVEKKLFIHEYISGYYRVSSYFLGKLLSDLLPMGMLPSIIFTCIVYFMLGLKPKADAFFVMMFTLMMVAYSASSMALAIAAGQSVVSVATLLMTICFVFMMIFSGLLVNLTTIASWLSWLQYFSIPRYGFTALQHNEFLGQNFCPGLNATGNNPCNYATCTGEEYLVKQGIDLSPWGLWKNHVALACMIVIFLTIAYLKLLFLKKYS

Turning to `COc1ccc(O)c(/C=N/Nc2ncnc3scc(-c4ccc(C)cc4)c23)c1` [TPH104], in the data set with MDA-MB468 cells, the “nuclear condensation or cellular shrinkage” value is recorded as “did not produce”. Besides, the “fluorescence intensity of the acridine orange (AO) dye” value in the data set on BT-20 cells is recorded as “did not show a significant increase”. In data set [1] (0.5, 1, 2, and 5 μM), the TNF-α entry is listed as “no significant change”; the “expression of TNFR1, FADD, and Fas” value is “significantly inhibited”. In addition, the “TRAIL, its receptor (DRS), RIP3, and TRADD” value in data set [1] (0.5, 1, 2, or 5 μM) is given as “significant increase”. Moreover, the “intracellular accumulation of rhodamine 123” value in data set [2] is “increased”. In addition, the colony formation rate entry in data set [3] (0.1, 1, 10 μM for 12 h) is listed as “significantly inhibited”. In data set [3] (1 and 10 μM, all 3 TNBC cell lines), the “number and size of the colonies formed” value is “significantly decreased”.
